Test results taken from the supplement of paper PMC10307832.

How the values were obtained:
Assay in all cases: relative viability (nuclei count vs DMSO), 5 days (fraction); higher = more cells survive
[1] = compound: CCn1c(-c2nonc2N)nc2cnc(Oc3cccc(NC(=O)c4ccc(OCCN5CCOCC5)cc4)c3)cc21 + Cc1cc(Nc2cc(N3CCN(C)CC3)nc(Sc3ccc(NC(=O)C4CC4)cc3)n2)n[nH]1 [Tozasertib] (partner 0.1 µM)
How it was run: (§1)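 Relative viability is defined as nuclei in treated wells over nuclei in vehicle wells. Duplicate plates were run and medians reported. Lung cancer cell lines in 1536-well plates were dosed by pin tool one day after seeding, with one drug or with a fixed anchor-drug dose plus five library-drug doses (not always all listed) in √10 steps, and nuclei were counted after 5 days.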

Mirin + Bortezomib = compound: N=C1NC(=O)/C(=C/c2ccc(O)cc2)S1 [Mirin] + CC(C)C[C@H](NC(=O)[C@H](Cc1ccccc1)NC(=O)c1cnccn1)B(O)O [Bortezomib] (partner 0.002 µM)
How it was run: as §1

[2] = compound: CCC1=CN=CN=C1N2CCN(CC2)CC3=NC4=C(N3)C=C(C=C4)C(F)(F)F + CC1(C)CCC(c2ccc(Cl)cc2)=C(CN2CCN(c3ccc(C(=O)NS(=O)(=O)c4ccc(N[C@H](CCN5CCOCC5)CSc5ccccc5)c(S(=O)(=O)C(F)(F)F)c4)cc3)CC2)C1 [Navitoclax] (partner 0.5 µM)
How it was run: as §1

[3] = compound: CCC1=CN=CN=C1N2CCN(CC2)CC3=NC4=C(N3)C=C(C=C4)C(F)(F)F + Cc1nc(NC(=O)N2CCC[C@H]2C(N)=O)sc1-c1ccnc(C(C)(C)C(F)(F)F)c1 [Alpelisib] (partner 2 µM)
How it was run: as §1

Cell Line: UMC-11
- relative viability ([1]; first compound 0.04 µM): 0.206
- relative viability ([1]; first compound 0.1265 µM): 0.212
- relative viability ([1]; first compound 0.4 µM): 0.205
- relative viability ([1]; first compound 1.265 µM): 0.16
- relative viability ([1]; first compound 4 µM): 0.186
- relative viability (Mirin + Bortezomib; first compound 0.25 µM): 0.876
- relative viability (Mirin + Bortezomib; first compound 0.7906 µM): 0.457
- relative viability (Mirin + Bortezomib; first compound 2.5 µM): 0.629
- relative viability (Mirin + Bortezomib; first compound 7.906 µM): 0.636
- relative viability (Mirin + Bortezomib; first compound 25 µM): 0.547
- relative viability ([2]; first compound 0.04 µM): 0.319
- relative viability ([2]; first compound 0.1265 µM): 0.304
- relative viability ([2]; first compound 0.4 µM): 0.312
- relative viability ([2]; first compound 1.265 µM): 0.284
- relative viability ([2]; first compound 4 µM): 0.305
- relative viability ([3]; first compound 0.04 µM): 0.973
- relative viability ([3]; first compound 0.1265 µM): 1.07
- relative viability ([3]; first compound 0.4 µM): 0.959
- relative viability ([3]; first compound 1.265 µM): 0.906
- relative viability ([3]; first compound 4 µM): 0.871
